Experimental data reported in the NIST ThermoML archive (doi:10.1021/acs.jced.9b00794).
Numbers after ± are expanded uncertainties.

Assay: mn = molality of the nth substance listed, in mol/kg
Conditions: 99.6 kPa, Liquid, Vibrating tube method

NC(N)=O [urea] + NC=O
mass density [kg/m3]
Conditions	288.15 K	298.15 K	308.15 K	318.15 K	328.15 K
m1 = 0.1057	1138.95 ± 0.11	1130.54 ± 0.11	1122.1 ± 0.11	1113.61 ± 0.1	1105.1 ± 0.1
m1 = 0.1893	1139.77 ± 0.12	1131.36 ± 0.11	1122.91 ± 0.11	1114.44 ± 0.1	1105.94 ± 0.1
m1 = 0.3308	1141.12 ± 0.12	1132.72 ± 0.11	1124.29 ± 0.11	1115.82 ± 0.1	1107.33 ± 0.1
m1 = 0.4766	1142.51 ± 0.12	1134.11 ± 0.11	1125.69 ± 0.11	1117.23 ± 0.1	1108.75 ± 0.1
m1 = 0.675	1144.34 ± 0.12	1135.96 ± 0.11	1127.55 ± 0.11	1119.11 ± 0.1	1110.64 ± 0.1
m1 = 0.7518	1145.05 ± 0.12	1136.67 ± 0.11	1128.26 ± 0.11	1119.83 ± 0.11	1111.37 ± 0.1
m1 = 0.8498	1145.93 ± 0.12	1137.56 ± 0.11	1129.16 ± 0.11	1120.74 ± 0.11	1112.28 ± 0.1
m1 = 1.07	1147.9 ± 0.12	1139.54 ± 0.11	1131.15 ± 0.11	1122.75 ± 0.11	1114.3 ± 0.1
m1 = 1.292	1149.82 ± 0.12	1141.49 ± 0.12	1133.11 ± 0.11	1124.72 ± 0.11	1116.29 ± 0.1
m1 = 1.33	1150.15 ± 0.12	1141.82 ± 0.12	1133.44 ± 0.11	1125.05 ± 0.11	1116.63 ± 0.1
m1 = 1.424	1150.95 ± 0.12	1142.62 ± 0.12	1134.26 ± 0.11	1125.87 ± 0.11	1117.45 ± 0.1
m1 = 1.555	1152.06 ± 0.12	1143.73 ± 0.12	1135.38 ± 0.11	1127 ± 0.11	1118.59 ± 0.1
m1 = 1.681	1153.09 ± 0.12	1144.79 ± 0.12	1136.43 ± 0.11	1128.06 ± 0.11	1119.66 ± 0.1
m1 = 1.718	1153.4 ± 0.12	1145.09 ± 0.12	1136.75 ± 0.11	1128.38 ± 0.11	1119.98 ± 0.1
m1 = 1.824	1154.26 ± 0.12	1145.96 ± 0.12	1137.63 ± 0.11	1129.27 ± 0.11	1120.87 ± 0.11
m1 = 1.999	1155.67 ± 0.12	1147.39 ± 0.12	1139.06 ± 0.11	1130.7 ± 0.11	1122.32 ± 0.11

NC(N)=O [urea] + O
mass density [kg/m3]
Conditions	288.15 K	298.15 K	308.15 K	318.15 K	328.15 K
m1 = 0.09134	1000.61 ± 0.04	998.5 ± 0.04	995.42 ± 0.05	991.58 ± 0.05	987.02 ± 0.05
m1 = 0.2167	1002.67 ± 0.04	1000.46 ± 0.04	997.32 ± 0.04	993.41 ± 0.05	988.81 ± 0.05
m1 = 0.3509	1004.84 ± 0.05	1002.52 ± 0.04	999.32 ± 0.04	995.36 ± 0.05	990.71 ± 0.05
m1 = 0.5181	1007.5 ± 0.05	1005.07 ± 0.05	1001.77 ± 0.04	997.75 ± 0.04	993.05 ± 0.05
m1 = 0.6698	1009.88 ± 0.05	1007.34 ± 0.05	1003.96 ± 0.05	999.88 ± 0.04	995.14 ± 0.05
m1 = 0.8161	1012.14 ± 0.05	1009.5 ± 0.05	1006.05 ± 0.05	1001.91 ± 0.04	997.13 ± 0.05
m1 = 0.9745	1014.54 ± 0.05	1011.8 ± 0.05	1008.27 ± 0.05	1004.08 ± 0.05	999.25 ± 0.04
m1 = 1.195	1017.83 ± 0.05	1014.96 ± 0.05	1011.32 ± 0.05	1007.05 ± 0.05	1002.16 ± 0.04
m1 = 1.33	1019.8 ± 0.05	1016.85 ± 0.05	1013.15 ± 0.05	1008.83 ± 0.05	1003.92 ± 0.05
m1 = 1.489	1022.09 ± 0.05	1019.05 ± 0.05	1015.27 ± 0.05	1010.91 ± 0.05	1005.95 ± 0.05
m1 = 1.6	1023.67 ± 0.05	1020.57 ± 0.05	1016.75 ± 0.05	1012.35 ± 0.05	1007.36 ± 0.05
m1 = 1.707	1025.18 ± 0.06	1022.02 ± 0.05	1018.15 ± 0.05	1013.72 ± 0.05	1008.7 ± 0.05
m1 = 1.898	1027.81 ± 0.06	1024.56 ± 0.06	1020.6 ± 0.05	1016.12 ± 0.05	1011.06 ± 0.05
m1 = 2.034	1029.63 ± 0.06	1026.33 ± 0.06	1022.32 ± 0.05	1017.8 ± 0.05	1012.71 ± 0.05
